Assay results from ChEMBL document CHEMBL6120940, “Discovery of N-Aryl-N'-[4-(aryloxy)cyclohexyl]squaramide-Based Inhibitors of LXR/SREBP-1c Signaling Pathway Ameliorating Steatotic Liver Disease: Navigating the Role of SIRT6 Activation” (J Med Chem, 2024).

How the values were obtained:
[1] = Downregulation of SREBP-1c mRNA expression in human HepG2 cells at 10 uM pretreated with compound for 30 mins followed by T0901317 addition and measured after 12 hrs by RT-qPCR analysis relative to control; type: functional; details: time 12.5 hrs
CYP2C9 = CYP2C9 (Homo sapiens, UniProt P11712); assay: Inhibition of CYP2C9 in human liver microsomes at 10 uM using diclofenac as substrate preincubated for 5 mins followed by NADPH generating system addition and measured after 15 mins relative to control; type: ADME, Microsome; details: probe diclofenac, time 20 min
CYP1A2 = biological target: T1, CYP1A2 (Homo sapiens, UniProt P05177); assay: Inhibition of CYP1A2 in human liver microsomes at 10 uM using phenacetin as substrate preincubated for 5 mins followed by NADPH generating system addition and measured after 15 mins relative to control; type: ADME, Microsome; details: probe phenacetin, time 20 min
T1 sequence (P05177 whole entry): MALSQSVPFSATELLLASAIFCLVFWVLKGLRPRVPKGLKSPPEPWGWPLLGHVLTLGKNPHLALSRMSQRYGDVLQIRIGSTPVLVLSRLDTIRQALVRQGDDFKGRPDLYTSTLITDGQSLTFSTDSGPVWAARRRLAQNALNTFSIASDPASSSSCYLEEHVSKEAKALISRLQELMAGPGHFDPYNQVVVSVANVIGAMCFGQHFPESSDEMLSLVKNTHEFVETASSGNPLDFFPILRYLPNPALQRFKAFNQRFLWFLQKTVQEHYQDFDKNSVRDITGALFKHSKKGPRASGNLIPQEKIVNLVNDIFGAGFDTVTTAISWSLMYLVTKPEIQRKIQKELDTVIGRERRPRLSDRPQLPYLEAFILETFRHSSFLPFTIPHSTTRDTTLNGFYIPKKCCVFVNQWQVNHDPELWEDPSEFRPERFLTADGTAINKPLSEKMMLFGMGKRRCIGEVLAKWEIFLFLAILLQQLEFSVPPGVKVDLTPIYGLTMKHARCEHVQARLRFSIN

[2] = Metabolic stability in human liver microsomes at 1 uM measured after 30 mins in presence of NADPH regeneration system by LC-MS/MS analysis; type: ADME, Microsome; details: read-out: Stability
CYP2D6 = CYP2D6 (Homo sapiens, UniProt P10635); assay: Inhibition of CYP2D6 in human liver microsomes at 10 uM using dextromethorphan as substrate preincubated for 5 mins followed by NADPH generating system addition and measured after 15 mins relative to control; type: ADME, Microsome; details: probe dextromethorphan, time 20 min
CYP3A4 = CYP3A4 (Homo sapiens, UniProt P08684); assay: Inhibition of CYP3A4 in human liver microsomes at 10 uM using midazolam as substrate preincubated for 5 mins followed by NADPH generating system addition and measured after 15 mins relative to control; type: ADME, Microsome; details: probe midazolam, time 20 min
[3] = Stability in rat plasma measured after 120 mins by LC-MS/MS analysis; type: ADME, cell-free; details: read-out: Stability
[4] = Metabolic stability in mouse liver microsomes at 1 uM measured after 30 mins in presence of NADPH regeneration system by LC-MS/MS analysis; type: ADME, Microsome; details: read-out: Stability
[5] = biological target: Voltage-gated inwardly rectifying potassium channel KCNH2 (Homo sapiens, UniProt Q12809); assay: Inhibition of human ERG expressing HEK cells by whole-cell patch clamp assay; type: toxicity, cell-based
[6] = Metabolic stability in rat liver microsomes at 1 uM measured after 30 mins in presence of NADPH regeneration system by LC-MS/MS analysis; type: ADME, Microsome; details: read-out: Stability
CYP2C19 = CYP2C19 (Homo sapiens, UniProt P33261); assay: Inhibition of CYP2C19 in human liver microsomes at 10 uM using S-mephenytoin as substrate preincubated for 5 mins followed by NADPH generating system addition and measured after 15 mins relative to control; type: ADME, Microsome; details: probe S-mephenytoin, time 20 min
[7] = biological target: T2, Sterol regulatory element-binding protein 1 (Homo sapiens) (UniProt P36956); assay: Inhibition of SREBP-1c transcriptional activity in human HepG2 cells expressing LXRalpha/RXRalpha assessed as reduction in SRE-luciferase level at 10 uM pretreated with compound for 30 mins followed by T0901317 addition and measured after 12 hrs by Dual-Glo luciferase assay relative to control; type: cell-based; details: time 12.5 hrs
T2 sequence (whole entry): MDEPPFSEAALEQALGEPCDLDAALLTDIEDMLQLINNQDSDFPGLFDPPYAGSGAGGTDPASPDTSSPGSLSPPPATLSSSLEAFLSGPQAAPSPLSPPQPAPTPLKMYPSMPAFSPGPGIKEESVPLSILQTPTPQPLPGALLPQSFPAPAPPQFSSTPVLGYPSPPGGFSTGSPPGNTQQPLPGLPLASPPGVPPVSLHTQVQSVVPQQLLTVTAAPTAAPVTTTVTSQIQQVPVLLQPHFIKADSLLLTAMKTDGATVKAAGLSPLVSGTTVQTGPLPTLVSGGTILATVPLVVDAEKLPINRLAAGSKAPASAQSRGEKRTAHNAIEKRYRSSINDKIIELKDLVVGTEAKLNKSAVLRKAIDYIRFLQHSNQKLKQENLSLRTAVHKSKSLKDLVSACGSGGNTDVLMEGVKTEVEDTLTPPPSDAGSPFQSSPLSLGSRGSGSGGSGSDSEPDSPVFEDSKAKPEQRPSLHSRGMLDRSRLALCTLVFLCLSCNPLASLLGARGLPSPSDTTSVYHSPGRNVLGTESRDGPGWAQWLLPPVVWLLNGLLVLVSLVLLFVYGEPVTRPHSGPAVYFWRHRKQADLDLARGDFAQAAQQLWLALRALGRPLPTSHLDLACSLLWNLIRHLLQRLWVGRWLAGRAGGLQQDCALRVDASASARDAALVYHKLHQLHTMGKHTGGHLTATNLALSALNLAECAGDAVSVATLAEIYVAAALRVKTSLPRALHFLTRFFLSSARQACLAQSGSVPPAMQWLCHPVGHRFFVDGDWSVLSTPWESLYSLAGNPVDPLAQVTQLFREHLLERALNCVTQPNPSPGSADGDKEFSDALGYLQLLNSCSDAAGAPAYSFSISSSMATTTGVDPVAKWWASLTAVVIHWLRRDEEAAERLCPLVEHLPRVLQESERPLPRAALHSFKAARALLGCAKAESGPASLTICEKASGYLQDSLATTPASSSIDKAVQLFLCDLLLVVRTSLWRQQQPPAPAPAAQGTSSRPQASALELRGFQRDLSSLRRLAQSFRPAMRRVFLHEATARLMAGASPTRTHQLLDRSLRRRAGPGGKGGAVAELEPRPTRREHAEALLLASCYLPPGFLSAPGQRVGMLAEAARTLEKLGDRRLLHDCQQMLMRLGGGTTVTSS

[8] = Stability in mouse plasma measured after 120 mins by LC-MS/MS analysis; type: ADME, cell-free; details: read-out: Stability
[9] = Stability in human plasma measured after 120 mins by LC-MS/MS analysis; type: ADME, cell-free; details: read-out: Stability

Sequence of CYP2D6 (P10635 whole entry): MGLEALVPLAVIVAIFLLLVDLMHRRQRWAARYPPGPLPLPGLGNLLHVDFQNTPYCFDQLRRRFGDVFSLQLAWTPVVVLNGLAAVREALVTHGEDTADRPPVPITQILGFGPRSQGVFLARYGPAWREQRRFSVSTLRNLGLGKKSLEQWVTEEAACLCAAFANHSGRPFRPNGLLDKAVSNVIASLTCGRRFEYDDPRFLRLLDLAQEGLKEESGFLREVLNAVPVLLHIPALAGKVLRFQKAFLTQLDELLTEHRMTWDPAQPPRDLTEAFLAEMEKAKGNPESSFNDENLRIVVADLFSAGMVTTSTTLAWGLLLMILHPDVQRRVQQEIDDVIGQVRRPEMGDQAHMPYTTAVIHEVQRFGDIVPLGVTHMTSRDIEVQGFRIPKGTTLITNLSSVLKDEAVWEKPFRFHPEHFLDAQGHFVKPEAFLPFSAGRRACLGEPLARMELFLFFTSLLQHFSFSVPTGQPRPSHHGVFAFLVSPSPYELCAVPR
Sequence of CYP2C9 (P11712 whole entry): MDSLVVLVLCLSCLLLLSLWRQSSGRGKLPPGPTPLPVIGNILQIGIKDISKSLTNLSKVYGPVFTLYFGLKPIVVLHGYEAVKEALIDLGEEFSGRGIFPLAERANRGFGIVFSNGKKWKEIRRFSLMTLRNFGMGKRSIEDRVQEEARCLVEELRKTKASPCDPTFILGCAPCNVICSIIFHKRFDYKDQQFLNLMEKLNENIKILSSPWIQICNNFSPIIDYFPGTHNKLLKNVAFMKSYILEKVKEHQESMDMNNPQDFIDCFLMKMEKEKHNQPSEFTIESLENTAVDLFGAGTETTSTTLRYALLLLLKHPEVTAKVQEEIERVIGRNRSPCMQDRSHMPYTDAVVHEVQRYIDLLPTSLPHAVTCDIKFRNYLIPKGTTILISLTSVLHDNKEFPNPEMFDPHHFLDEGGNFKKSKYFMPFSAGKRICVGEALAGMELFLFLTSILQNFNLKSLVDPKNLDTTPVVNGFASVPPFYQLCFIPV
Sequence of CYP3A4 (P08684 whole entry): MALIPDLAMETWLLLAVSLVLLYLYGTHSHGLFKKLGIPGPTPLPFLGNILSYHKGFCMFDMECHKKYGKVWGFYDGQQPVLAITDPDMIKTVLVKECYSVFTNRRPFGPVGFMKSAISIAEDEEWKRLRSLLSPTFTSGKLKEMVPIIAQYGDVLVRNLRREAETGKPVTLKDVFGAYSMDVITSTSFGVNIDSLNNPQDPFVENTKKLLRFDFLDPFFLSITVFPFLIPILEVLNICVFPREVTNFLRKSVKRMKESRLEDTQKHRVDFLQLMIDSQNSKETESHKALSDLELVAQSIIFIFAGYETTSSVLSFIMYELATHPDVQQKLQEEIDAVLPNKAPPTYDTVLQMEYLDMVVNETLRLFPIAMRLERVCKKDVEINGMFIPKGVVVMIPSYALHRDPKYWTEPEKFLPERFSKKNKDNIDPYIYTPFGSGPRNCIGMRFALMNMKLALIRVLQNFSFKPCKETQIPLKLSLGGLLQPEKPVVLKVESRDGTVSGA
Sequence of Voltage-gated inwardly rectifying potassium channel KCNH2 (Q12809 whole entry): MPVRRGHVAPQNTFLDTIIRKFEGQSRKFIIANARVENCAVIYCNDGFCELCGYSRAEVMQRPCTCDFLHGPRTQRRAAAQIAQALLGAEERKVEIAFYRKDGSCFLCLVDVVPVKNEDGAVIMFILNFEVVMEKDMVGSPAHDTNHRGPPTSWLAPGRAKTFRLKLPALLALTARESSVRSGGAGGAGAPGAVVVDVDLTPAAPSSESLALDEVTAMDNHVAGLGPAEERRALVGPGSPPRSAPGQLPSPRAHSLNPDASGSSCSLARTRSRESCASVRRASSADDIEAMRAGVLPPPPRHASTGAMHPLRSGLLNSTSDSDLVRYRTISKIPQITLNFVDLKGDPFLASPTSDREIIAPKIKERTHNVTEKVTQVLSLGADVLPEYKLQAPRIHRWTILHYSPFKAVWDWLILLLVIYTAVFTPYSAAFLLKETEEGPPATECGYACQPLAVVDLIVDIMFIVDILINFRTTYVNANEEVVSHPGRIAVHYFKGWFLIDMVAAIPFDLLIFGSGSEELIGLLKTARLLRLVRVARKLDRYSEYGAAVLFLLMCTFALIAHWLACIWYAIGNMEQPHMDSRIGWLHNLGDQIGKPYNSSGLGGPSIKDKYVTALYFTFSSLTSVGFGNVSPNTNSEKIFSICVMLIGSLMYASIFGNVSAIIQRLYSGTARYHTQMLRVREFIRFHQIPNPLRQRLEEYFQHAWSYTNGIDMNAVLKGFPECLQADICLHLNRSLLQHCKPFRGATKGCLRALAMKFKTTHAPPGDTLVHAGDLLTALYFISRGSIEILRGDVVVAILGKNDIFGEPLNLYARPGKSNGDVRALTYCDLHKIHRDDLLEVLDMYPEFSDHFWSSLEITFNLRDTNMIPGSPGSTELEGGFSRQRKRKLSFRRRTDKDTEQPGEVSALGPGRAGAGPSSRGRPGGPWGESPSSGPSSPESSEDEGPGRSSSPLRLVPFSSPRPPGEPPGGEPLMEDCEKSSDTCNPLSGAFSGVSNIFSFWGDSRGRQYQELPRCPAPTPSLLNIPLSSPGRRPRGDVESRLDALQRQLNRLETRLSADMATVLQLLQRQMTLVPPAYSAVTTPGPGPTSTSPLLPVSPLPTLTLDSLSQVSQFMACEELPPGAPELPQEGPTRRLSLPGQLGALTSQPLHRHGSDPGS
Sequence of CYP2C19 (P33261 whole entry): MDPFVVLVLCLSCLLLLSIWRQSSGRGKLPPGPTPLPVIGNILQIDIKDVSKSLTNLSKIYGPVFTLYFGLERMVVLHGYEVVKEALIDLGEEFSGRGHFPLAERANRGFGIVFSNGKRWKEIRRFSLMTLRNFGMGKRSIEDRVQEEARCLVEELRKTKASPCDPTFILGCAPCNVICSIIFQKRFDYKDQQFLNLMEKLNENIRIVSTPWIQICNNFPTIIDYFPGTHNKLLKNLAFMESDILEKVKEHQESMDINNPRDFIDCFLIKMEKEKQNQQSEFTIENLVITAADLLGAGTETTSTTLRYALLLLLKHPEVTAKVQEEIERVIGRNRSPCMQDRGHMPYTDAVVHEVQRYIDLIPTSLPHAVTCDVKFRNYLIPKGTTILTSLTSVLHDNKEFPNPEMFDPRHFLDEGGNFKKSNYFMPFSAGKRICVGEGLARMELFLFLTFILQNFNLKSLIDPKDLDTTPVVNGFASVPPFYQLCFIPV

- inhibition at 0.25 h, 10 µM (CYP2C9): 56.9%
- inhibition at 0.25 h, 10 µM (CYP1A2): > 100%
- remaining at 0.5 h, 1 µM [2]: 15.5%
- inhibition at 0.25 h, 10 µM (CYP2D6): 86.2%
- inhibition at 0.25 h, 10 µM (CYP3A4): 84%
- remaining at 2 h [3]: 93.1%
- remaining at 0.5 h, 1 µM [4]: 31%
- remaining at 0.5 h, 1 µM [6]: 26.5%
- inhibition at 0.25 h, 10 µM (CYP2C19): 38.9%
- inhibition [7]: 32.6%
- remaining at 2 h [8]: > 100%
- remaining at 2 h [9]: 96.3%
SMILES: COc1ccccc1Nc1c(N[C@H]2CC[C@H](Oc3ccc(C#N)cc3)CC2)c(=O)c1=O
- Activity [1]: 7.4%
- IC50 [5]: 493 nM
